In patent publication US20190008870A1, “COMPOSITIONS AND METHODS FOR LIPID METABOLISM DISORDER” (JANSFAT BIOTECHNOLOGY CO., LTD., priority 2016, published 2019):

Key:
ROCK II [1] = assay: ROCK II expression in HepG2 cells; assay type: cell-based
Procedure: The HepG2 hepatoma cell line was purchased from the American Type Culture Collection (ATCC, Manassas, Va., U.S.A.). Cells were cultured in Dulbecco's Modified Eagle's Medium (DMEM). […] Then the targeted drugs solution was incubated with the cells for 24 hours, followed by protein extraction. […] HepG2 cells were treated with various concentrations of targeted drugs for 24 hours. Reactions were terminated by washing twice with cold PBS, and the cells were then harvested. Proteins in the whole-cell lysate were homogenized in an ice-cold lysis buffer and a protease inhibitor (Sigma-Aldrich, St. Louis, Mo., U.S.A.). The homogenate was centrifuged at 90,000×g for 15 minutes at 4° C., and supernatant was recovered as the total cellular protein. Cytosolic and membrane fractions of HepG2 cells were prepared using a CNM (Cytosol Nuclear Membrane) compartmental protein extraction kit (BioChain Institute Inc., Hayward, Calif., U.S.A.) according to the manufacturer's instructions. All of the fractionated protein solutions were stored at -80° C. until analysis. To measure the expression levels of proteins by drugs, the total cell protein was extracted after incubation with treatments for 24 hours and then Western blotting analysis was performed as described previously.

epididymal fat pads = assay: Epididymal fat pad weight and diameter in HFD mice; assay type: in vivo
Procedure: Mice liver and epididymal fat pads were cut and soaked in formalin, dehydrated through graded alcohols and embedded in paraffin. Specimens of liver tissues and epididymal fat pads fixed with formalin (4%) were embedded in paraffin for one hour at 4° C., cut into 4-μm-thick sections, and subjected to H&E staining before examination by light microscope.

PKG = PKG expression/immunoreactivity in HepG2 cells; assay type: cell-based
Procedure: HepG2 cells were treated with various concentrations of targeted drugs for 24 hours. Reactions were terminated by washing twice with cold PBS, and the cells were then harvested. Proteins in the whole-cell lysate were homogenized in an ice-cold lysis buffer and a protease inhibitor (Sigma-Aldrich, St. Louis, Mo., U.S.A.). The homogenate was centrifuged at 90,000×g for 15 minutes at 4° C., and supernatant was recovered as the total cellular protein. Cytosolic and membrane fractions of HepG2 cells were prepared using a CNM (Cytosol Nuclear Membrane) compartmental protein extraction kit (BioChain Institute Inc., Hayward, Calif., U.S.A.) according to the manufacturer's instructions. All of the fractionated protein solutions were stored at −80° C. until analysis. To measure the expression levels of proteins by drugs, the total cell protein was extracted after incubation with treatments for 24 hours and then Western blotting analysis was performed as described previously.
To determine that KMUP-1 or targeted drugs can affect PKA, we incubated KMUP-1 (10^−4, 10^−5, 10^−6 M) or targeted drugs with HepG2 cells for 24 hours to measure the protein expressions of PKA/PKG by Western blotting or PKA/PKG and HSL immunoreactivities by fluorescence staining, combined with image scanning in the absence or presence of oxidized LDL (200 μg/mL).

mice fed with HFD = assay: Serum and liver lipid levels of mice fed with HFD; assay type: in vivo
Procedure: (§1) During the 2 month experiments, mice fasted for one night before the experiment was changed from a standard diet (STD) to an HFD and then the mice were randomly divided into 13 groups, including a protection group, 2 control and 10 treatment groups. Six mice were used in each group. […] Liver from the protection group supplemented with KMUP-1 HCl (1 mg/kg/day) were used to determine the HMG CoA reductase expression. Each group of mice had free access to drinking water from week 1 to week 14. Tap water was used to normalize mineral nutrition.
Within 2 months, the 3 day food intake average for each animal was measured. The weight gain and plasma lipid levels of each group were determined and compared to the non-treatment control group. […] Agents used in the assays were obtained from Merck & Co. (Kenilworth, N.J., U.S.A.). Triglyceride (TG), total cholesterol, HDL cholesterol and LDL cholesterol in mouse serum were measured by methods used in the clinic. To measure the hepatic Triglyceride, isolated liver were cut into small chips.

ROCK II [2] = assay: HFD-induced ROCK II expression in liver; assay type: in vivo, mice; details: for ROCK II: HFD mice, CTL 100
Procedure: as §1, with “In the experiment, C57BL/6J male mice (21-22 g), after fasting, were fed an HFD as a model of hyperlipidemia for 8 weeks. During” for “During”
For the expression of SR-B1, HMGR, PPARγ and ROCK II, isolated liver tissues were cut into small chips and placed into an extraction buffer (Tris 10 mM, pH 7.0, NaCl 140 mM, PMSF 2 mM, DTT 5 mM, NP-40 0.5%, pepstatin A 0.05 mM and leupeptin 0.2 mM) for hepatic protein extraction, and centrifuged at 20,000×g for 30 minutes. The obtained protein extract was boiled to a ratio of 4:1 with a sample buffer (Tris 100 mM, pH 6.8, glycerol 20%, SDS 4% and bromophenol blue 0.2%). Electrophoresis was performed using 10% SDS-polyacrylamide gel (1 hour, 100 V, 40 mA, 20 μg protein per lane).
Separated proteins, after 3 repeated centrifugations to discard up-layer tissue lipid in purity, were transferred to PVDF membranes treated with 5% fat-free milk powder to block the nonspecific IgGs (90 minutes, 100 V) and incubated for 1 hour with specific protein antibody. The blot was then incubated with anti-mouse or anti-goat IgG linked to alkaline phosphatase (1:1000) for 1 hour.

eNOS = assay: Expression of eNOS (Table 12); details: Control group 100 (%)
[3] = 10^−5 M, 24 hours, Control 100, Vehicle 88

Cn1c(=O)c2c(ncn2CCN2CCN(c3ccccc3Cl)CC2)n(C)c1=O [KMUP-1, 7-[2-[4-(2-chlorophenyl)piperazinyl]ethyl]-1,3-dimethylxanthine]
ROCK II expression (ROCK II [1]; [3]): 41 | ROCKII (ROCK II [1]; FPP (10 μM) + drug 10^−5 M): 60% | ROCKII (ROCK II [1]; FPP (10 μM) + drug 10^−6 M): 80% | ROCKII (ROCK II [1]; FPP (10 μM) + drug 10^−7 M): 88% | ROCKII (ROCK II [1]; FPP (10 μM) + drug 10^−8 M): 86% | ROCKII (ROCK II [1]; FPP (10 μM) + drug 10^−9 M): 84% | ROCKII (ROCK II [1]; GGPP (10 μM) + drug 10^−5 M): 40% | ROCKII (ROCK II [1]; GGPP (10 μM) + drug 10^−6 M): 60% | ROCKII (ROCK II [1]; GGPP (10 μM) + drug 10^−7 M): 108% | ROCKII (ROCK II [1]; GGPP (10 μM) + drug 10^−8 M): 120% | ROCKII (ROCK II [1]; GGPP (10 μM) + drug 10^−9 M): 112% | ROCK II expression (ROCK II [1]; Rp-8-pCPT-cGMPS + KMUP-1 (10 μM), Control 100): 170 | Fat pads diameter (epididymal fat pads; HFD mice 14 weeks, KMUP-1 2.5 mg/kg/day, Control 46): 28 μm | Weight of fat pads (R) (epididymal fat pads; HFD mice, KMUP-1 2.5 mg/kg/day for 14 weeks, Control 165): 120 mg | Weight of fat pads (L) (epididymal fat pads; HFD mice, KMUP-1 2.5 mg/kg/day for 14 weeks, Control 170): 96 mg | PKG immunoreactivity (PKG; HepG2 cells (data not shown)): not significantly affected | expression of PKG (PKG; HepG2 cells, 10, 20, 40 μM, in the presence of LDL (500 μg/mL)): increased | HDL cholesterol (mice fed with HFD; 2.5 mg/kg p.o.): 103.6 ± 4.2 mg/dL | LDL cholesterol (mice fed with HFD; 2.5 mg/kg p.o.): 14.2 ± 1.4 mg/dL | TG in serum (Triacylglycerol) (mice fed with HFD; 2.5 mg/kg p.o.): 74.5 ± 5.1 mg/dL | TG of liver (mice fed with HFD; 2.5 mg/kg p.o.): 28.4 ± 3.6 mg/dL | Tot. chol. (total cholesterol) (mice fed with HFD; 2.5 mg/kg p.o.): 133.0 ± 5.1 mg/dL | HDL cholesterol (mice fed with HFD; 5 mg/kg p.o.): 118.3 ± 5.7 mg/dL | LDL cholesterol (mice fed with HFD; 5 mg/kg p.o.): 14.2 ± 2.2 mg/dL | TG in serum (Triacylglycerol) (mice fed with HFD; 5 mg/kg p.o.): 72.7 ± 4.7 mg/dL | TG of liver (mice fed with HFD; 5 mg/kg p.o.): 26.12 ± 3.1 mg/dL | Tot. chol. (total cholesterol) (mice fed with HFD; 5 mg/kg p.o.): 125.5 ± 9.8 mg/dL | HDL chol. (mice fed with HFD; Dose 2.5 mg/kg (Table 2)): 103.6 ± 4.2 mg/dL | LDL chol. (mice fed with HFD; Dose 2.5 mg/kg (Table 2)): 14.2 ± 1.4 mg/dL | TG (mice fed with HFD; Dose 2.5 mg/kg (Table 2)): 74.5 ± 5.1 mg/dL | Tot. chol. (mice fed with HFD; Dose 2.5 mg/kg (Table 2)): 133 ± 5.1 mg/dL | HDL chol. (mice fed with HFD; Dose 5 mg/kg (Table 2)): 118.3 ± 5.7 mg/dL | LDL chol. (mice fed with HFD; Dose 5 mg/kg (Table 2)): 14.2 ± 2.2 mg/dL | TG (mice fed with HFD; Dose 5 mg/kg (Table 2)): 72.67 ± 4.7 mg/dL | Tot. chol. (mice fed with HFD; Dose 5 mg/kg (Table 2)): 125.5 ± 9.8 mg/dL | HFD-induced hypercholesterolemia (mice fed with HFD; supplementation): significantly improved | ROCK II (ROCK II [2]; 1 mg/kg): 30% | ROCK II (ROCK II [2]; 2.5 mg/kg): 25% | ROCK II (ROCK II [2]; 5 mg/kg): 10% | eNOS expression (eNOS): 155.16 ± 14.8%

CCC(C)(C)C(=O)O[C@H]1C[C@@H](C)C=C2C=C[C@H](C)[C@H](CC[C@@H]3C[C@@H](O)CC(=O)O3)[C@H]21 [Simva, Simvastatin, reference compound]
ROCK II expression (ROCK II [1]; [3]): 45 | ROCKII (ROCK II [1]; GGPP (10 μM) + drug 10^−5 M): 210% | ROCKII (ROCK II [1]; GGPP (10 μM) + drug 10^−6 M): 220% | ROCKII (ROCK II [1]; GGPP (10 μM) + drug 10^−7 M): 200% | ROCKII (ROCK II [1]; GGPP (10 μM) + drug 10^−8 M): 214% | ROCKII (ROCK II [1]; GGPP (10 μM) + drug 10^−9 M): 210% | HDL chol. (mice fed with HFD; Dose 5 mg/kg (Table 2)): 108.4 ± 1.3 mg/dL | LDL chol. (mice fed with HFD; Dose 5 mg/kg (Table 2)): 17.3 ± 1.4 mg/dL | TG (mice fed with HFD; Dose 5 mg/kg (Table 2)): 81.2 ± 4.4 mg/dL | Tot. chol. (mice fed with HFD; Dose 5 mg/kg (Table 2)): 129.7 ± 1.4 mg/dL | ROCKII (ROCK II [2]; Simva 5 mg/kg, CTL 100 (Table 9)): 43%
